{"source": "patent US12144792B2", "about": "“Therapeutic agents for neurodegenerative diseases” (priority 2016, dated 2024)", "key": {"[1]": {"test_system": "Aspartylglucosaminuria patient fibroblasts", "test": "Lysosomal volume via LysoTracker", "type": "cell-based, human", "conditions": "1 mM, 6 days, vs untreated"}, "[2]": {"test_system": "Hexb^−/− mouse (Sandhoff disease model)", "test": "Step cycle", "type": "in vivo", "conditions": "Sandhoff mice, 0.1 g/kg from 3 weeks, 12 weeks of age", "procedure": "This study made use of a mouse model of Sandhoff disease, the Hexb^−/− mouse, as described in Jeyakumar et al. (Jeyakumar, M. et al. (1999) Proc. Natl. Acad. Sci. USA 96: 6388-6393). Step cycle is the length of time taken during locomotion by a limb from the time it leaves the ground until it leaves the ground on the next occasion. Step cycle time was assessed at 12 weeks of age in untreated and acetyl-leucine treated Sandhoff model mice. Acetyl-leucine treatment constituted 0.1 g/kg body weight acetyl-leucine from 3 weeks of age."}, "[3]": {"test_system": "Sandhoff disease patient fibroblasts", "test": "Glycosphingolipid (GSL) levels via HPLC", "type": "cell-based, human", "conditions": "1 mM for 6 days"}, "[4]": {"test_system": "patients with multisystemic atrophy cerebellar type (MSA-C)", "test": "Case studies, clinical examination", "type": "in vivo, human"}, "[5]": {"test_system": "patient with frontotemporal dementia with parkinsonism", "test": "Case study, clinical examination", "type": "in vivo, human", "text": "After approximately one month of acetyl-leucine treatment, medication was stopped and the patient was re-examined 13 days later."}, "[6]": {"test_system": "patients with multiple system atrophy Parkinson type (MSA-P)", "test": "Case studies, clinical examination", "type": "in vivo, human", "text": "Medication was stopped. […] The patient evaluated after one month on acetyl-DL-leucine. […] Episodes of mental confusion completely disappeared. The patient's cognitive structure seemed much clearer and straighter. […] The patient's spouse supported continuing the medication."}, "NPC patients": {"test_system": "NPC patients", "test": "Clinical severity score (CSS) and annual severity increment score (ASIS)", "type": "in vivo, human", "conditions": "ten NPC patients, 4.5 g/day", "text": "An NPC patient's severity may be quantified by assigning a clinical severity score (CSS), which assesses various parameters of the disease and gives each parameter a score out of 5 (higher score=greater severity). See Yanjanin et al., “Linear Clinical Progression, Independent of Age of Onset, in Niemann-Pick Disease, Type C,” Am J Med Genet Part B 153B:132-140. In an untreated patient, one can typically predict how the CSS will change over time in an individual, as disease progression appears to be linear. For example, if Patient A moves from a CSS of 8 to a CSS of 12 between month 0 and month 12, it can be predicted that by month 36, the patient will have a CSS of 20. The annual severity increment score (ASIS) quantities the annual rate of change in the CSS, calculated by dividing the CSS of a patient by the patient's age. […]\nTen NPC patients were administered acetyl-leucine at 4.5 g/day over long durations. A CSS was determined at baseline, and at various time points, for eye movement, ambulation, speech, swallow, fine motor skills, cognition, memory, and seizures. An overall CSS was calculated at baseline and at each such time point by adding the individual CSS values for each parameter (eye movement, ambulation, etc.).\nThe ASIS at baseline and each time point was calculated using each patient's CSS and age at the time of assessment. […]"}, "[7]": {"test_system": "12 patients with Niemann-Pick Type C (NPC)", "conditions": "one-month study, 12 NPC patients (Bremova et al. 2015); cited from earlier work"}, "patients with ataxia": {"test_system": "patients with ataxia", "conditions": "patients with ataxia (Becker-Bense et al. 2015); cited from earlier work"}}, "data": [{"smiles": "CC(=O)NC(CC(C)C)C(=O)O", "note": "(racemic) [acetyl-DL-leucine]", "values": [{"measurement": "LysoTracker fluorescence (lysosomal volume)", "setting": "[1]", "value": "trend in reducing LysoTracker fluorescence"}, {"measurement": "average step cycle time", "setting": "[2]; p<0.001 vs untreated", "value": "significantly faster average step cycle times"}, {"measurement": "hind step cycle time", "setting": "[2]; p<0.01 vs untreated", "value": "significantly faster hind step cycle times"}, {"measurement": "front step cycle time", "setting": "[2]; p<0.05 vs untreated", "value": "significantly faster front step cycle times"}, {"measurement": "GSL levels", "setting": "[3]", "value": "trend towards decreased GSL levels"}, {"measurement": "speech", "setting": "[4]; Ex. 8 Patient 1, MSA-C, 5 g per day, after one week", "value": "significant improvement in speech"}, {"measurement": "gait", "setting": "[4]; Ex. 8 Patient 2, MSA-C, 3 then up to 5 gram per day, after 3 weeks", "value": "significant improvement of gait"}, {"measurement": "falls", "setting": "[4]; Ex. 8 Patient 2, MSA-C, after 3 weeks, before approximately 10 falls a month", "value": "the falls completely stopped"}, {"measurement": "symptoms after stopping medication", "setting": "[4]; Ex. 8 Patient 2, MSA-C, one week after stopping", "value": "deterioration of gait and dizziness"}, {"measurement": "gait", "setting": "[5]; Ex. 9, frontotemporal dementia with parkinsonism, 3 then 5 gram per day, approximately one month", "value": "significant improvement of gait"}, {"measurement": "speech", "setting": "[5]; Ex. 9, under therapy", "value": "improvement of speech"}, {"measurement": "falls", "setting": "[5]; Ex. 9, under therapy, before 2-3 falls per month", "value": "the patient's falls stopped"}, {"measurement": "symptoms", "setting": "[6]; Ex. 13 Patient 1, MSA-P, 3 g/day first week, 5 g/day thereafter, after 3 weeks", "value": "no significant improvement of gait, reduction of falls or improved hypokinetic rigid-syndrome"}, {"measurement": "symptoms", "setting": "[6]; Ex. 13 Patient 2, MSA-P, 3 then 5 g per day, after one month", "value": "subjective improvement of dizziness"}, {"measurement": "cognitive function", "setting": "[6]; Ex. 13 Patient 3, MSA-P, 3 then 5 g per day, after one month, reported by the patient's spouse", "value": "significant improvement of cognitive function"}, {"measurement": "gait function", "setting": "[6]; Ex. 13 Patient 3, MSA-P, after one month", "value": "no improvement of gait function"}, {"measurement": "change of ASIS relative to baseline", "setting": "NPC patients", "value": "all ten patients showed a reduction in ASIS"}, {"measurement": "change of overall CSS over the course of the experiment", "setting": "NPC patients", "value": "none of the ten patients showed an overall increase in CSS"}, {"measurement": "ataxia symptoms", "setting": "[7]", "value": "symptomatic improvement of ataxia"}, {"measurement": "brain metabolism (PET)", "setting": "patients with ataxia", "value": "increased metabolism in the midbrain and lower brainstem in responders"}]}]}
